# Tested on: ATP-dependent exonuclease
# Test: Coupled spectrophotometric assay: ADP formation coupled to NADH oxidation (PK/LDH), read at 340 nm
# Format: biochemical
# Conditions: for Product inhibition: observed only upon >50% conversion of the substrates ATP and DNA; for Relative rate of ATP hydrolysis: alone
# Protocol: Standard curves were routinely generated by using 0, 2, 6, 10, 14 and 18 μL of 1 ng/μL substrate DNA. Eighty μl of the reaction mix was incubated with up to 20 μl of DNA and dH2 O (total volume of 100 μl) at 25° C. The reactions were quenched with 15 μl of 200 mM EDTA, pH 8.0/NaOH, following a 30 or 40 min incubation. The reactions were read at 340 nm.
# The 10× assay buffer contained tris-acetate (pH 7.8/acetate at 25° C.); 330 mM, potassium acetate; 660 mM, magnesium acetate; 100 mM, dithiothreitol; 5 mM, Triton X-100, 0.1%. The reaction mix was prepared as follows, 10× buffer; 0.250 ml, NADH; 0.250 ml (0.64 μmoles), PEP; 25.0 μl (2.4 μmoles), ATP; 75.0 μl (2.5 μmoles), H2 O; 1.305 ml, PK/LDH enzyme mix; 75.0 μl, ATP dependent DNAase; 20.0 μl (200 units).
# An enzyme kinetics program ENZFITTER (Elsevier Biosoft) was used to generate a plot (A340 versus ng DNA) of the standard. The slope was calculated following a regression analysis. A similar plot of the sample (A340 versus μL DNA) was also prepared. The slope determined from the regression analysis was used to calculate the concentration of linear DNA in the sample.
# A reliable method for quantification requires that the concentration of products formed in the reaction is linear with time, concentrations of enzyme and of substrate. In the present assay, ATP hydrolysis was linear with time. The experiments that generated the data shown in FIG. 2 are a coupled spectrophotometric assay in which the linear DNA content was varied from 2 to 20 ng. Twenty μL aliquots were removed at various times (10, 20, 30 & 60 min), and quenched by mixing with 4 μl of 200 mM EDTA as described in Materials and Methods. The samples were further diluted to 100 μl with water, to facilitate determination of optical density. ATP hydrolysis was linear with time and at least up to 40% substrate converted to products (<0.4 mM ADP and Pi). ADP formation was also linear with several enzyme concentrations. The experiments that generated the data shown in FIG. 3 are a coupled assay system in which the amount of enzyme added to the reaction was varied. The enzyme was diluted using 1× reaction buffer and left on ice prior to its addition to the reaction mixture. The reaction was quenched at 15 min, with EDTA as described in Materials and Methods. ADP formation was linear with several enzyme concentrations at least until 0.36 mM ADP and Pi was formed in the reaction. The reaction rates were slower when ~60% of the substrates (100 ng DNA and 1 mM ATP) were converted to products. […] The Vmax was 30 nmoles/min/mg enzyme. In the experiments that generated the data in FIG. 4, the reaction was carried out in a coupled assay as described in the Methods. The reactions were initiated by the addition of enzyme. Following initiation of the 500 μl reaction; 100 μl samples were withdrawn at 1, 2, 5 and 10 min and quenched with 10 μl of 200 mM EDTA. Initial velocities were derived from the reaction rate, obtained by linear regression analysis of absorbances at 340 nm recorded at various times during the reaction. […] The data reported in FIG. 5A is replot of FIG. 2 as a function of linear DNA content in the reaction mixture. In the experiments which generated these date, the 20 μl aliquots were quenched with EDTA as described above, at various times of incubation. […] The results are consistent with the potential use of this enzyme to quantify linear DNA content.
# [1] = 50 ng linear DNA as substrate, +10 mM EDTA or +1 mM citrate
compound,measurement,setting,value
"Nc1ncnc2c1ncn2[C@@H]1O[C@H](COP(=O)(O)OP(=O)(O)O)[C@@H](O)[C@H]1O [ADP, adenosine diphosphate]",Product inhibition,,Product inhibition
O=C(O)CN(CCN(CC(=O)O)CC(=O)O)CC(=O)O [EDTA],Relative rate of ATP hydrolysis,[1],0.008
same,Effect on the enzymatic reaction,at molar equivalent to the divalent cation used in the assay,quenched the enzymatic reaction
"O=P(O)(O)O [Pi, inorganic phosphate]",Product inhibition,,Product inhibition
O=C(O)CC(O)(CC(=O)O)C(=O)O [citrate],Relative rate of ATP hydrolysis,[1],0.686
same,Enhancement of enzymatic activity,citrate at 50 μM,~50%
same,Inhibition of ATP hydrolytic activity,citrate at 1 mM in the presence of 10 mM Mg++,30%
CCO [ethanol],Relative rate of ATP hydrolysis,"5 ng linear DNA as substrate, +200 ng t-RNA, +500 ng circular DNA or +5% ethanol",0.86
same,Relative rate of ATP hydrolysis,"10 ng linear DNA as substrate, +200 ng t-RNA, +500 ng circular DNA or +5% ethanol",1.78
same,Relative rate of ATP hydrolysis,"15 ng linear DNA as substrate, +200 ng t-RNA, +500 ng circular DNA or +5% ethanol",2.64
same,Effect on enzymatic activity,concentrations beyond 4% ethanol,severely inhibited
